# According to patent US20070213301A1 (ACHILLION PHARMACEUTICALS, INC., priority 2006, published 2007):
# Tested on: HCV replicon
# Experiment: HCV replicon replication assay (NPTII ELISA)
# Assay type: cell-based, Hepatitis C virus (Huh-7 cells)
# Details: Hepatitis C virus, Huh-7, 72 h, inhibition of HCV replicon replication in Huh-7 HCV replicon-containing cells, three days incubation, NPT level by ELISA; read-out: EC50
# Procedure: Compounds claimed herein are tested for the ability to inhibit viral replication of the Hepatitis C replicon in cultured cells in which the HCV replicon construct has been incorporated. The HCV replicon system was described by Bartenschlager, et. al (Science, 285, pp. 110-113 (1999)). The replicon system is predictive of in vivo anti-HCV activity; compounds that are active in humans uniformly evidence activity in the replicon assay.
# In this assay HCV replicon containing cells are treated with different concentrations of the test compound to ascertain the ability of the test compound to suppress replication of the HCV replicon. As a positive control, HCV replicon-containing cells are treated with different concentrations of interferon alpha, a known inhibitor of HCV replication. The replicon assay system includes Neomycin Phosphotransferase (NPT) as a component of the replicon itself in order to detect the transcription of replicon gene products in the host cell. Cells in which the HCV replicon is actively replicating have high levels of NPT; the level of NPT is proportional to HCV replication. […] The NPT level of each sample is measured using a captured ELISA.
# The HCV replicon contains, 5′-3′, the HCV-IRES, the neomycin phosphotransferase (neo) gene, the IRES of encephalomyocarditis virus, which directs translation of HCV sequences NS3 to NS5B, and the 3′-NTR. The sequence of the HCV replicon has been deposited in GenBank (Accession no. AJ242652).
# The replicon is transfected into Huh-7 cells using standard methods such as electroporation.
# The cells are then seeded onto 96-well plates at a density of 6000-7500 cells/100 microliters/well (6-7.5×10^5 cells/10 ml/plate). The plates are then incubated at 37° C. in a 5% CO2 incubator.
# HCV replicon-containing cells are rinsed with once PBS once; 2 mls of trypsin are then added. Cells are incubated at 37° C. in a 5% CO2 incubator for 3-5 minutes. 10 mls of complete medium is added to stop the reaction. Cells are blown gently, put into a 15 ml tube, and spun at 1200 rpm for four minutes. The trypsin/medium solution is removed and 5 mls of medium (500 ml DMEM (high glucose)) from BRL catalog #12430-054; 50 mls 10% FBS, 5% Geneticin G418 (50 mg/ml, BRL catalog #10131-035), 5 ml MEM non-essential amino acids (100× BRL #11140-050) and 5 ml pen-strep (BRL #15140-148) is added. The cells and media are mixed carefully
# Cells are plated with screening medium (500 ml DMEM (BRL #21063-029), 50 ml FBS (BRL #10082-147) and 5 ml MEM non-essential amino acid (BRL #11140-050) at 6000-7500 cells/100 μl/well of 96 well plate (6-7.5×10^5 cells/10 ml/plate). Plates are placed into 37° C. 5% CO2 incubator overnight.
# The following morning, drugs (test compounds or interferon alpha) are diluted in 96 well U bottom plates with media or DMSO/media, depending on the final concentration chosen for screening. Generally for 6 concentrations of each test compounds ranging from 10 micromolar to 0.03 micromolar are applied. 100 μl of the test compound dilution is placed in wells of the 96 well plate containing the HCV replicon cells. Media without drug is added to some wells as a negative controls. DMSO is known to affect cell growth. Therefore, if drugs diluted in DMSO are used, all wells, including negative control (media only) and positive control (interferon alpha) wells, must contain the same concentration of DMSO, for single dose screening. The plates are incubated at 37° C. in a humidified 5% CO2 environment for three days.
# On day four, the NTPII assay is quantitated. The medium is poured from the plates and the plates are washed once in 200 μl of PBS. The PBS is then decanted and the plates tapped in a paper towel to remove any remaining PBS. Cells are fixed in situ with 100 μl/well of pre-cooled (−20° C.) methanol:acetone (1:1) and the plates are placed at −20° C. for 30 minutes.
# The fixing solution is poured from the plates and the plates allowed to air-dry completely (approximately one hour). […]
row,Compound,EC50
1,"CCCCCOc1ccc(N(C(=O)C(=O)OC)c2nc(CN(C)C)cs2)cc1C(F)(F)F [Compound 23, methyl 2-((4-((dimethylamino)methyl)thiazol-2-yl)(4-(pentyloxy)-3-(trifluoromethyl)phenyl)amino)-2-oxoacetate]",1000 to 10000 nM
2,"CCCCCOc1ccc(N(C(=O)c2cc(C)on2)c2nc(-c3cccnc3)cs2)cc1C(F)(F)F [Compound 34, 5-methyl-N-(4-(pentyloxy)-3-(trifluoromethyl)phenyl)-N-(4-(pyridin-3-yl)thiazol-2-yl)isoxazole-3-carboxamide]",< 1000 nM
3,"CCCCCCCCOc1ccc(N(C(=O)C(C)OC(C)=O)c2nc(-c3ccc(C)nc3)cs2)cc1 (centres unmarked) [Compound 63, 1-((4-(6-methylpyridin-3-yl)thiazol-2-yl)(4-(octyloxy)phenyl)amino)-1-oxopropan-2-yl acetate]",< 1000 nM
4,"CCCCCCCCc1ccc(N(C(=O)OCCN(C)C)c2nc(-c3cccnc3)c(F)s2)cc1C(F)(F)F [Compound 179, 2-(dimethylamino)ethyl 5-fluoro-4-(pyridin-3-yl)thiazol-2-yl(4-octyl-3-(trifluoromethyl)phenyl)carbamate]",< 1000 nM
5,"CCCCOc1ccc(N(C(N)=O)c2nc(-c3ccc(F)c(F)c3)cs2)cc1C(F)(F)F [Compound 138, 1-(4-butoxy-3-(trifluoromethyl)phenyl)-1-(4-(3,4-difluorophenyl)thiazol-2-yl)urea]",< 1000 nM
6,"CCCCCOc1ccc(N(C(=O)C(=O)OC)c2nc(-c3ccc(F)cc3F)cs2)cc1C(F)(F)F [Compound 37, methyl 2-((4-(2,4-difluorophenyl)thiazol-2-yl)(4-(pentyloxy)-3-(trifluoromethyl)phenyl)amino)-2-oxoacetate]",< 1000 nM
7,"NC(=O)N(c1ccc(OCC2CCCCC2)c(F)c1)c1nc(-c2ccncc2)cs1 [Compound 142, 1-(4-(cyclohexylmethoxy)-3-fluorophenyl)-1-(4-(pyridin-4-yl)thiazol-2-yl)urea]",1000 to 10000 nM
8,"CCCCCCCCOc1ccc(N(C(N)=O)c2nc(-c3cccnc3)c(F)s2)cc1C(F)(F)F [Compound 176, 1-(5-fluoro-4-(pyridin-3-yl)thiazol-2-yl)-1-(4-(octyloxy)-3-(trifluoromethyl)phenyl)urea]",< 1000 nM
9,"CCCCCOc1ccc(N(C(N)=O)c2nc(-c3ccncc3)cs2)cc1F [Compound 141, 1-(3-fluoro-4-(pentyloxy)phenyl)-1-(4-(pyridin-4-yl)thiazol-2-yl)urea]",> 10000 nM
10,"CCCCCCCCc1ccc(N(C(=O)CC(C)(C)c2c(C)cc(C)cc2OP(=O)(O)O)c2nc(-c3cccnc3)c(F)s2)cc1C(F)(F)F [Compound 182, 2-(4-((5-fluoro-4-(pyridin-3-yl)thiazol-2-yl)(4-octyl-3-(trifluoromethyl)phenyl)amino)-2-methyl-4-oxobutan-2-yl)-3,5-dimethylphenyl dihydrogen phosphate]",1000 to 10000 nM
11,"CCCCCOc1ccc(N(C)c2nc(-c3cccnc3)cs2)cc1C(F)(F)F [Compound 2, N-methyl-N-(4-(pentyloxy)-3-(trifluoromethyl)phenyl)-4-(pyridin-3-yl)thiazol-2-amine]",< 1000 nM
12,"CCCCCOc1ccc(N(C(N)=O)c2nc(-c3cccnc3)cs2)cc1F [Compound 87, 1-(3-fluoro-4-(pentyloxy)phenyl)-1-(4-(pyridin-3-yl)thiazol-2-yl)urea]",< 1000 nM
13,"CCCCCCCCOc1ccc(N(C(=O)c2cc(C)on2)c2nc(-c3ccc(Cl)s3)cs2)cc1 [Compound 89, N-(4-(5-chlorothiophen-2-yl)thiazol-2-yl)-5-methyl-N-(4-(octyloxy)phenyl)isoxazole-3-carboxamide]",< 1000 nM
14,"CCCCCOc1ccc(N(C(=O)C(=O)OC)c2nc(-c3ccc(Cl)s3)cs2)cc1C(F)(F)F [Compound 99, methyl 2-((4-(5-chlorothiophen-2-yl)thiazol-2-yl)(4-(pentyloxy)-3-(trifluoromethyl)phenyl)amino)-2-oxoacetate]",< 1000 nM
15,"CCCCCCCCOc1ccc(N(C(N)=O)c2nc(-c3ccc(C(=O)N(C)C)nc3)cs2)cc1 [Compound 78, N,N-dimethyl-5-(2-(1-(4-(octyloxy)phenyl)ureido)thiazol-4-yl)picolinamide]",> 10000 nM
16,"CCCCCOc1ccc(N(C(N)=O)c2nc(-c3ccc(F)cc3)cs2)cc1F [Compound 111, 1-(3-fluoro-4-(pentyloxy)phenyl)-1-(4-(4-fluorophenyl)thiazol-2-yl)urea]",< 1000 nM
17,"CCCCCCCCOc1ccc(N(C(=O)COC(C)=O)c2nc(-c3cccnc3)cs2)cc1C(F)(F)F [Compound 158, 2-((4-(octyloxy)-3-(trifluoromethyl)phenyl)(4-(pyridin-3-yl)thiazol-2-yl)amino)-2-oxoethyl acetate]",< 1000 nM
18,"CN(C)CC(=O)N(c1ccc(OCCCCc2cccs2)c(C(F)(F)F)c1)c1nc(-c2cccnc2)c(F)s1 [Compound 173, 2-(dimethylamino)-N-(5-fluoro-4-(pyridin-3-yl)thiazol-2-yl)-N-(4-(4-(thiophen-2-yl)butoxy)-3-(trifluoromethyl)phenyl)acetamide]",< 1000 nM
19,"CCCCCCCCOc1ccc(N(C(=O)C(=O)OCC)c2nc(-c3cccnc3)cs2)cc1 [Compound 66, ethyl 2-((4-(octyloxy)phenyl)(4-(pyridin-3-yl)thiazol-2-yl)amino)-2-oxoacetate]",< 1000 nM
20,"CCCCCOc1ccc(N(C(=O)COC(C)=O)c2nc(-c3cccnc3)cs2)cc1C(F)(F)F [Compound 33, 2-oxo-2-((4-(pentyloxy)-3-(trifluoromethyl)phenyl)(4-(pyridin-3-yl)thiazol-2-yl)amino)ethyl acetate]",< 1000 nM
21,"CCCCCCCCOc1ccc(N(C(=O)COCCOCCOC)c2nc(-c3cccnc3)c(F)s2)cc1C(F)(F)F [Compound 172, N-(5-fluoro-4-(pyridin-3-yl)thiazol-2-yl)-2-(2-(2-methoxyethoxy)ethoxy)-N-(4-(octyloxy)-3-(trifluoromethyl)phenyl)acetamide]",< 1000 nM
22,"CCCCCOc1ccc(N(C(N)=O)c2nc(-c3ccc(F)cc3)cs2)cc1C(F)(F)F [Compound 69, 1-(4-(4-fluorophenyl)thiazol-2-yl)-1-(4-(pentyloxy)-3-(trifluoromethyl)phenyl)urea]",< 1000 nM
23,"CCCCCCOc1ccc(N(C(N)=O)c2nc(-c3ccc(C)nc3)cs2)cc1 [Compound 143, 1-(4-(hexyloxy)phenyl)-1-(4-(6-methylpyridin-3-yl)thiazol-2-yl)urea]",1000 to 10000 nM
24,"CCCCCCCCOc1ccc(N(C(=O)COC(C)=O)c2nc(-c3cccnc3)c(F)s2)cc1C(F)(F)F [Compound 168, 2-((5-fluoro-4-(pyridin-3-yl)thiazol-2-yl)(4-(octyloxy)-3-(trifluoromethyl)phenyl)amino)-2-oxoethyl acetate]",< 1000 nM
25,"CCCCCCCOc1ccc(N(C(N)=O)c2nc(-c3ccc(C(=O)N(C)C)nc3)cs2)cc1 [Compound 79, 5-(2-(1-(4-(heptyloxy)phenyl)ureido)thiazol-4-yl)-N,N-dimethylpicolinamide]",> 10000 nM
26,"CCCCCOc1ccc(N(C(N)=O)c2nc(-c3ccc(C(=O)N(C)C)nc3)cs2)cc1C(F)(F)F [Compound 77, N,N-dimethyl-5-(2-(1-(4-(pentyloxy)-3-(trifluoromethyl)phenyl)ureido)thiazol-4-yl)picolinamide]",< 1000 nM
